Test results from patent US20220202624A1, “SELF-ADHESIVE SILICONE GEL LOADED WITH MICROPARTICLES, PARTICLES WITH IMPROVED ADHESION” (priority 2019, published 2022).

What was measured:
[1] = Gel consistency: elastic shear modulus G′ by rheometer; assay type: physicochemical; details: 4.8% Isopropyl Myristate in gel, vs pure gel (Table 7)
From the text: 1. Preparation of Materials for Performance Characterization. • Characterization of rheological properties: for these characterizations, a ˜0.6 g sample of non-crosslinked SACSG should be placed in the measuring cell. In the case of mixtures obtained by the direct mode, a sample of the degassed mixture whose preparation has just been described is used. If Parts A′ and B′ which have been obtained by the indirect method are available, both Parts A′ and B′ are rehomogenised if necessary, equivalent masses of A′ and B′ are weighed and mixed with a spatula; after degassing at 20-50 mbar at room temperature until the bubbles are eliminated (about 10 minutes), a sample of the mixture may be taken and placed in the measuring cell. […]
The consistency of the gels is characterized by their elastic shear modulus, which is measured as follows: • rheometer: Thermofisher RS 6000. • Plan-Plan cell: rotor with 20 mm radius, rotor/stator gap=0.5 mm. • mode: imposed stress=10 Pa. • oscillation frequency: 1 Hz. • temperature: sample installation at 30°. • closing of the cell in two steps: 3 mm/mn until D=1.5 mm, then 0.15 mm/mn until D=0.5 mm. • temperature rise to 70° in 60 s. • measurement G′-G″ at 70° for 4000 s, return to 30°. […]

[2] = Miscibility / solubility of added substances in self-adhesive silicone gel (SASG); details: liquid in SASG

| Compound | drop of G′ value [1] | miscibility with SASG [2] |
| --- | --- | --- |
| CCCCCCCCCCCCCC(=O)OC(C)C [Isopropyl Myristate] | 20% | – |
| COC(=O)c1ccccc1O [Methyl Salicylate] | – | 12-15% |
